Measured values reported in patent US4476122A, “Alkyloximes of 7-amino-thiazolyl-acetamido-cephalosporanic acids” (Roussel Uclaf, priority 1976, dated 1984).
≈ marks a conversion by molar mass, not a printed value. Like-named read-outs stand apart in the source and are kept apart here.

Assays:
[1] = tested on: Klebsiella pneumonia 52,145; assay: Experimental infection with Klebsiella pneumonia in mice (D); format: in vivo
Description: The activity of the products of Examples 19 and 21 was studied on an experimental infection of Klebsiella pneumonia in mice. Groups of 10 male mice weighing 21.5 g received intraperitoneally 0.5 ml of a 24 hour culture in nutritive media of Klebsiella pneumonia 52,145 diluted by 1/1000 with distilled water. The products were administered subcutaneously 1,5 and 24 hours after the injection and the number of dead mice were determined using 10th days.

[2] = tested on: Bacillus subtilis ATCC 6 633; assay: MIC, liquid medium dilution; format: cell-based
Description: (§1) The method used was a dilution of a liquid medium where a series of tubes received the same quantity of a sterile nutritive media and increasing doses of the test compounds were placed therein. Then each tube was seeded with a bacterial strain and was incubated for 24 or 48 hours at 37° C. in an oven. The increasing inhibition was determined by transillumination to determine the minimum inhibiting concentration (MIC in μg/ml) and the results are reported in the following Tables.

[3] = tested on: Escherichia Coli Exp. TO26 B6; assay: MIC, liquid medium dilution; format: cell-based
Description: as §1

[4] = tested on: Staphylococcus aureus UC 1 128 Pen-Resistant; assay: MIC, liquid medium dilution; format: cell-based
Description: as §1

[5] = tested on: Staphylococcus aureus exp. n° 54 146; assay: MIC, liquid medium dilution; format: cell-based
Description: as §1

[6] = tested on: Proteus vulgaris (indol+) A 232; assay: MIC, liquid medium dilution; format: cell-based
Description: as §1

[7] = tested on: Salmonella typhimurium 420; assay: MIC, liquid medium dilution; format: cell-based; details: Salmonella enterica
Description: as §1

[8] = tested on: Staphylococcus aureus ATCC 6 538 Pen-Sensitive; assay: MIC, liquid medium dilution; format: cell-based
Description: as §1

[9] = tested on: Proteus mirabilis (indol-) A 235; assay: MIC, liquid medium dilution; format: cell-based
Description: as §1

[10] = tested on: Streptococcus pyogenes A 561; assay: MIC, liquid medium dilution; format: cell-based
Description: as §1

[11] = tested on: Escherichia Coli Sensitive Tetracycline ATCC 9 637; assay: MIC, liquid medium dilution; format: cell-based
Description: as §1

[12] = tested on: Escherichia Coli Resistant Tetracycline ATCC 11 303; assay: MIC, liquid medium dilution; format: cell-based
Description: as §1

[13] = tested on: Streptococcus faecalis 99 F 74; assay: MIC, liquid medium dilution; format: cell-based; details: Enterococcus faecalis
Description: as §1

[14] = tested on: Klebsiella pneumoniae Exp. 52 145; assay: MIC, liquid medium dilution; format: cell-based
Description: as §1

[15] = tested on: Streptococcus faecalis 5 432; assay: MIC, liquid medium dilution; format: cell-based
Description: as §1

Providencia Du 48 = assay: MIC, liquid medium dilution; format: cell-based
Description: as §1

[16] = tested on: Klebsiella pneumoniae 2 536 Resistant Gentamicine; assay: MIC, liquid medium dilution; format: cell-based
Description: as §1

[17] = tested on: Serratia Resistant Gentamicine 2 532; assay: MIC, liquid medium dilution; format: cell-based
Description: as §1

Enterobacter cloacae 681 = assay: MIC, liquid medium dilution; format: cell-based
Description: as §1

[18] = tested on: Escherichia Coli Resistant Gentamicine, Tobramycine R 55 123 D; assay: MIC, liquid medium dilution; format: cell-based
Description: as §1

[19] = Enterococcus faecalis, 5432, 24 h

CO/N=C(\C(=O)NC1C(=O)N2C(C(=O)O)=C(CSc3nnc(C)s3)CS[C@H]12)c1csc(N)n1 (some centres unmarked) [Example 19, sodium 7-[{2-(2-amino-4-thiazolyl)-2-methoxyiminoacetyl}amino]-3-[(2-methyl-1,3,4-thiadiazol-5-yl)-thiomethyl]-ceph-3-eme-4-carboxylate]
Mice alive on the 10th day ([1]; subcutaneous, 0,1 mg): 9/10
Mortality after 6eJ (number of dead of 10) ([1]; subcutaneous, 0,1 mg): 1
Mice alive on the 10th day ([1]; subcutaneous, 0,05 mg): 6/10
Mortality after 4eJ (number of dead of 10) ([1]; subcutaneous, 0,05 mg): 1
Mortality after 5eJ (number of dead of 10) ([1]; subcutaneous, 0,05 mg): 2
Mortality after 7eJ (number of dead of 10) ([1]; subcutaneous, 0,05 mg): 1
Mice alive on the 10th day ([1]; subcutaneous, 0,5 mg): 10/10
Mice alive on the 10th day ([1]; subcutaneous, 0,25 mg): 10/10
Mice alive on the 10th day ([1]; subcutaneous, 1 mg): 10/10

CO/N=C(/C(=O)NC1C(=O)N2C(C(=O)O)=C(CSC(C)=O)CSC12)c1csc(N)n1 (centres unmarked) [Example 17, 3-acetylthiomethyl-7-[{2-(2-amino-4-thiazolyl)-2-methoxyiminoacetyl}amino]-ceph-3-eme-4-carboxylic acid]
MIC ([2]; ATCC6, 24 h): 5 µg/mL (≈ 10.6 µM)
MIC ([2]; ATCC6, 48 h): 20 µg/mL (≈ 42.4 µM)
MIC ([3]; 24 h): 20 µg/mL (≈ 42.4 µM)
MIC ([3]; 48 h): 40 µg/mL (≈ 84.8 µM)
MIC ([4]; UC1, 24 h): 40 µg/mL (≈ 84.8 µM)
MIC ([4]; UC1, 48 h): 100 µg/mL (≈ 212 µM)
MIC ([5]; 24 h): 40 µg/mL (≈ 84.8 µM)
MIC ([5]; 48 h): 40 µg/mL (≈ 84.8 µM)
MIC ([6]; 24 h): > 100 µg/mL
MIC ([6]; 48 h): > 100 µg/mL
MIC ([7]; 24 h): 40 µg/mL (≈ 84.8 µM)
MIC ([7]; 48 h): 40 µg/mL (≈ 84.8 µM)
MIC ([8]; ATCC6, 24 h): 20 µg/mL (≈ 42.4 µM)
MIC ([8]; ATCC6, 48 h): 20 µg/mL (≈ 42.4 µM)
MIC ([9]; 24 h): 5 µg/mL (≈ 10.6 µM)
MIC ([9]; 48 h): 40 µg/mL (≈ 84.8 µM)
MIC ([10]; A561, 24 h): 0.2 µg/mL (≈ 0.424 µM)
MIC ([10]; A561, 48 h): 0.2 µg/mL (≈ 0.424 µM)
MIC ([11]; ATCC9, 24 h): 40 µg/mL (≈ 84.8 µM)
MIC ([11]; ATCC9, 48 h): 40 µg/mL (≈ 84.8 µM)
MIC ([12]; ATCC11, 24 h): 5 µg/mL (≈ 10.6 µM)
MIC ([12]; ATCC11, 48 h): 5 µg/mL (≈ 10.6 µM)
MIC ([13]; 99F74, 24 h): > 100 µg/mL
MIC ([13]; 99F74, 48 h): > 100 µg/mL
MIC ([14]; EXP.52145, 24 h): 40 µg/mL (≈ 84.8 µM)
MIC ([14]; EXP.52145, 48 h): 40 µg/mL (≈ 84.8 µM)
MIC [15, 19]: > 100 µg/mL
MIC ([15]; Enterococcus faecalis, 5432, 48 h): > 100 µg/mL
MIC (Providencia Du 48; DU48, 24 h): > 100 µg/mL
MIC (Providencia Du 48; DU48, 48 h): > 100 µg/mL
MIC ([16]; 24 h): > 100 µg/mL
MIC ([16]; 48 h): > 100 µg/mL
MIC ([17]; 24 h): > 100 µg/mL
MIC ([17]; 48 h): > 100 µg/mL
MIC (Enterobacter cloacae 681; Enterobacter cloacae, 681, 24 h): 40 µg/mL (≈ 84.8 µM)
MIC (Enterobacter cloacae 681; Enterobacter cloacae, 681, 48 h): 100 µg/mL (≈ 212 µM)
MIC ([18]; 24 h): 40 µg/mL (≈ 84.8 µM)
MIC ([18]; 48 h): 40 µg/mL (≈ 84.8 µM)

CO/N=C(\C(=O)NC1C(=O)N2C(C(=O)O)=C(CSc3nnc(C)s3)CS[C@H]12)c1csc(N)n1 (some centres unmarked) [Example 2, 7-[{2-(2-amino-4-thiazolyl)-2-methoxyiminoacetyl}amino]-3-[(2-methyl-1,3,4-thiadiazol-5-yl)-thiomethyl]-ceph-3-eme-4-carboxylic acid]
MIC ([2]; ATCC6, 24 h, read-out: MIC): 0.6 µg/mL (≈ 1.14 µM)
MIC ([2]; ATCC6, 48 h): 1 µg/mL (≈ 1.9 µM)
MIC ([3]; 24 h): 0.4 µg/mL (≈ 0.758 µM)
MIC ([3]; 48 h): 0.4 µg/mL (≈ 0.758 µM)
MIC ([4]; UC1, 24 h, read-out: MIC): 2 µg/mL (≈ 3.79 µM)
MIC ([4]; UC1, 48 h, read-out: MIC): 2 µg/mL (≈ 3.79 µM)
MIC ([5]; 24 h, read-out: MIC): 2 µg/mL (≈ 3.79 µM)
MIC ([5]; 48 h, read-out: MIC): 2 µg/mL (≈ 3.79 µM)
MIC ([7]; 24 h, read-out: MIC): 0.6 µg/mL (≈ 1.14 µM)
MIC ([7]; 48 h): 0.6 µg/mL (≈ 1.14 µM)
MIC ([8]; ATCC6, 24 h): 1 µg/mL (≈ 1.9 µM)
MIC ([8]; ATCC6, 48 h): 1 µg/mL (≈ 1.9 µM)
MIC ([9]; 24 h): 0.2 µg/mL (≈ 0.379 µM)
MIC ([9]; 48 h): 0.2 µg/mL (≈ 0.379 µM)
MIC ([10]; A561, 24 h, read-out: MIC): ≤ 0.02 µg/mL
MIC ([10]; A561, 48 h, read-out: MIC): ≤ 0.02 µg/mL
MIC ([11]; ATCC9, 24 h, read-out: MIC): 0.6 µg/mL (≈ 1.14 µM)
MIC ([11]; ATCC9, 48 h): 0.6 µg/mL (≈ 1.14 µM)
MIC ([12]; ATCC11, 24 h, read-out: MIC): 0.1 µg/mL (≈ 0.19 µM)
MIC ([12]; ATCC11, 48 h): 0.2 µg/mL (≈ 0.379 µM)
MIC ([13]; 99F74, 24 h, read-out: MIC): 2 µg/mL (≈ 3.79 µM)
MIC ([13]; 99F74, 48 h, read-out: MIC): 5 µg/mL (≈ 9.48 µM)
MIC ([14]; EXP.52145, 24 h): 0.05 µg/mL (≈ 0.0948 µM)
MIC ([14]; EXP.52145, 48 h, read-out: MIC): 0.1 µg/mL (≈ 0.19 µM)
MIC [15, 19]: 1 µg/mL (≈ 1.9 µM)
MIC ([15]; Enterococcus faecalis, 5432, 48 h, read-out: MIC): 2 µg/mL (≈ 3.79 µM)
MIC (Providencia Du 48; DU48, 24 h, read-out: MIC): 2 µg/mL (≈ 3.79 µM)
MIC (Providencia Du 48; DU48, 48 h, read-out: MIC): 5 µg/mL (≈ 9.48 µM)
MIC ([16]; 24 h, read-out: MIC): 0.6 µg/mL (≈ 1.14 µM)
MIC ([16]; 48 h): 1 µg/mL (≈ 1.9 µM)
MIC ([17]; 24 h): 1 µg/mL (≈ 1.9 µM)
MIC ([17]; 48 h): 1 µg/mL (≈ 1.9 µM)
MIC (Enterobacter cloacae 681; Enterobacter cloacae, 681, 24 h, read-out: MIC): 40 µg/mL (≈ 75.8 µM)
MIC (Enterobacter cloacae 681; Enterobacter cloacae, 681, 48 h, read-out: MIC): 40 µg/mL (≈ 75.8 µM)
MIC ([18]; 24 h): 0.4 µg/mL (≈ 0.758 µM)
MIC ([18]; 48 h): 0.4 µg/mL (≈ 0.758 µM)
